Measurements: paper PMC8879200, “Design, Synthesis, and Biological Evaluation of 4,4’-Difluorobenzhydrol Carbamates as Selective M1 Antagonists” (Pharmaceuticals, 2022)
Where two headings read alike, the source gives them in different places.

Columns and labels:
hM2 = molecular target: T1, hM2 (Homo sapiens, UniProt P08172); test: Competitive [3H]NMS radioligand binding, CHO-hM2 cell membranes; conditions: for Ki: read-out: Affinity: Ki ± SD, hM2
T1 construct: host or cells: CHO-K1, stably transfected
T1 sequence (P08172 1-466): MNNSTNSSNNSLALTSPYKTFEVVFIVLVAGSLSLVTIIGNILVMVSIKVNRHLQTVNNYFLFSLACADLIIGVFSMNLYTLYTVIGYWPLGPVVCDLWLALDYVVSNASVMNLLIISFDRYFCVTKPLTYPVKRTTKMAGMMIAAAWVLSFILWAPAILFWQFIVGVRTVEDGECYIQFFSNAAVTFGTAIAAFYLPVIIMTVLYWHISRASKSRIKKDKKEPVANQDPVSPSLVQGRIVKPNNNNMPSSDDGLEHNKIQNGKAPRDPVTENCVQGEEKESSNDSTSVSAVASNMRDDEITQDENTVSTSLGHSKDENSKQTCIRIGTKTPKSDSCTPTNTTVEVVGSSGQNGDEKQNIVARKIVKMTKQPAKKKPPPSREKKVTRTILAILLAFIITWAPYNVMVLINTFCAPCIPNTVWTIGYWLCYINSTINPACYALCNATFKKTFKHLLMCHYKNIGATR
Procedure: (§1) We first assessed the carbamates’ affinities for human muscarinic acetylcholine receptors subtypes hM1–5 by means of a competitive radioligand binding assay displacing [N-methyl-^3H]scopolamine methyl chloride ([^3H]NMS) in cell membranes expressing the individual receptors.
(§2) Cell membranes bearing hM1-hM5 receptors were prepared as described previously. Briefly, stably transfected CHO-K1 cells were grown to at least 80% confluency in T175 flasks, washed with ice-cold DPBS, and scraped into a mixture of ice-cold of 2 mL 10 mM Tris-HCl, 1 mM EDTA-buffer, pH 7.4 and 200 µL protease inhibitor. A cell homogenate was prepared by passing the cell suspension through a G29 needle. The cell homogenates corresponding to two T175 flasks were combined and subsequently centrifuged (10 min, 1000 × g, 4 °C). Ultracentrifugation of the supernatant (1 h, 100,000 × g, 4 °C) yielded a membrane pellet, which was suspended in 250 µL 50 mM Tris-HCl buffer, pH 7.4 and stored at −80 °C.
(§3) Maximum binding was measured by using 5 µL DMSO, and nonspecific binding was measured by using 5 µL of 1 µM scopolamine in DMSO. […] The membrane-bound radioactivity was recovered by filtration through Whatman™ GF/B glass fibre filters pre-soaked in aqueous 0.1% PEI using an M-36 tygon tubed cell harvester (Brandel®, Gaithersburg, MD, USA). Membranes were washed 3 times with ice-cold washing buffer (50 mM Tris, pH 7.4) before being dried, transferred to 2 mL scintillation cocktail (UltimaGold™, high flashpoint LSC cocktail, PerkinElmer, Waltham, MA, USA) and counted in a β -counter (Hidex TDCR Liquid Scintillation Counter in CPM mode). IC50 values were calculated by a variable slope logistic regression using at least five distinct concentrations of test compounds, pipetted in triplicates.

hM5 = molecular target: T2, hM5 (Homo sapiens, UniProt P08912); test: Competitive [3H]NMS radioligand binding, CHO-hM5 cell membranes; conditions: for Ki: inhibition of [3H]NMS binding, CHO-hM5 membranes, read-out: Affinity: Ki ± SD, hM5
T2 construct: host or cells: CHO-K1, stably transfected
T2 sequence (P08912 1-532): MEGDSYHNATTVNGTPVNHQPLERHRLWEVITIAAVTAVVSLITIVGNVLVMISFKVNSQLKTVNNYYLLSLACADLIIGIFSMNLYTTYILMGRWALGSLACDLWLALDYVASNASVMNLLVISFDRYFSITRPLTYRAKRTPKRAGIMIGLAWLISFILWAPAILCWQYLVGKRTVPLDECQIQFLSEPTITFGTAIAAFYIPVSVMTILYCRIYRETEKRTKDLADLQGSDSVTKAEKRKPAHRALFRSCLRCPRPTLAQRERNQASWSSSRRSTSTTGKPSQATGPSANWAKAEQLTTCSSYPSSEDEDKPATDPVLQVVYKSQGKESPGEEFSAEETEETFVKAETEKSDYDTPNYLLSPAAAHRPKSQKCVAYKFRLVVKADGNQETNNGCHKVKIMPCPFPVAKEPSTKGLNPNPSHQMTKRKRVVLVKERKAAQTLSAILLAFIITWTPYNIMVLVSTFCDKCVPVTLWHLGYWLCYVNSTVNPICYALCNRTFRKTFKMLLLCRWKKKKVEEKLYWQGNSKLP
Procedure: as §1, §2, §3

physchem = conditions: pH 7.4
Procedure: (§4) Briefly, a mixture of toluene (≥98%, Sigma-Aldrich, St. Louis, MO, USA) and triphenylene (≥99.9%, Carl Roth, Karlsruhe, Germany) was used as internal standard. Each sample was dissolved in the internal standard mixture. Using gradient elution, the injection volume was set to 7 µL, the flow rate was 1.5 mL/min, and the mobile phase consisted of a mixture of methanol and 0.01 M sodium phosphate buffer pH 7.4. The HPLC-logD values were derived from the measured retention times following the previously published equation [27, 30].

hM4 = molecular target: T3, hM4 (Homo sapiens, UniProt P08173); test: Competitive [3H]NMS radioligand binding, CHO-hM4 cell membranes; conditions: for Ki: inhibition of [3H]NMS binding, CHO-hM4 membranes, read-out: Affinity: Ki ± SD, hM4
T3 construct: host or cells: CHO-K1, stably transfected
T3 sequence (P08173 1-479): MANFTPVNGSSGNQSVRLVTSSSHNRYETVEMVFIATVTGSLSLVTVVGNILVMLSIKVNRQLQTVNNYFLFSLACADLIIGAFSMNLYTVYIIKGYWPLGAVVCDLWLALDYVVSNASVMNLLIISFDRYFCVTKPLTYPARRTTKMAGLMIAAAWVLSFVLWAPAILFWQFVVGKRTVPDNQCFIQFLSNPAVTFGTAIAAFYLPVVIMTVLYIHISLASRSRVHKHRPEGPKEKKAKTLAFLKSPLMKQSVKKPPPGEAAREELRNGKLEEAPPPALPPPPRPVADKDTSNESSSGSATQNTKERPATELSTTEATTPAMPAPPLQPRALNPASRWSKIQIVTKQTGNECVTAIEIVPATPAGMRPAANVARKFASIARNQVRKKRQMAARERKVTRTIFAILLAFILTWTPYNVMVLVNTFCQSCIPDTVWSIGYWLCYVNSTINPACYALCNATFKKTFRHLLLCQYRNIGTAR
Procedure: as §1, §2, §3

hM3 = molecular target: T4, hM3 (Homo sapiens, UniProt P20309); test: Competitive [3H]NMS radioligand binding, CHO-hM3 cell membranes; conditions: for Ki: read-out: Affinity: Ki ± SD, hM3
T4 construct: host or cells: CHO-K1, stably transfected
T4 sequence (P20309 whole entry): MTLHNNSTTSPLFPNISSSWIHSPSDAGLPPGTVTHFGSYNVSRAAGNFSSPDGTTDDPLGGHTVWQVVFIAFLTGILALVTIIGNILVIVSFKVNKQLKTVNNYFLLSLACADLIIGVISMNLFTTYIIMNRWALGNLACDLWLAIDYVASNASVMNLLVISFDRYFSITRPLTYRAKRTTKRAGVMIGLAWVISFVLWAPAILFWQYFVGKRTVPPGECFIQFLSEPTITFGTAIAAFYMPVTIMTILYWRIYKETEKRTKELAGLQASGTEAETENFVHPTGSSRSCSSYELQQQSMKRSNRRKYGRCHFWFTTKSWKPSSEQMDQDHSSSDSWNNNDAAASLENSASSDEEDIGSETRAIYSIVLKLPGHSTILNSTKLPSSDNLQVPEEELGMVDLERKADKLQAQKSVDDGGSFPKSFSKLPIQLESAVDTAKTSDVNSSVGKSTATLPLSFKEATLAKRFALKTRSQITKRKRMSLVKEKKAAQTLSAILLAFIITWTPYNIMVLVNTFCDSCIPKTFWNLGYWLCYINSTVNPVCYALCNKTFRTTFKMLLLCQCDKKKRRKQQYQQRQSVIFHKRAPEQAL
Procedure: as §1, §2, §3

hM1 = molecular target: T5, hM1 (Homo sapiens, UniProt P11229); test: Competitive [3H]NMS radioligand binding, CHO-hM1 cell membranes; conditions: inhibition of [3H]NMS binding, CHO-hM1 membranes; read-out: Affinity: Ki ± SD, hM1
T5 construct: host or cells: CHO-K1, stably transfected
T5 sequence (P11229 1-460): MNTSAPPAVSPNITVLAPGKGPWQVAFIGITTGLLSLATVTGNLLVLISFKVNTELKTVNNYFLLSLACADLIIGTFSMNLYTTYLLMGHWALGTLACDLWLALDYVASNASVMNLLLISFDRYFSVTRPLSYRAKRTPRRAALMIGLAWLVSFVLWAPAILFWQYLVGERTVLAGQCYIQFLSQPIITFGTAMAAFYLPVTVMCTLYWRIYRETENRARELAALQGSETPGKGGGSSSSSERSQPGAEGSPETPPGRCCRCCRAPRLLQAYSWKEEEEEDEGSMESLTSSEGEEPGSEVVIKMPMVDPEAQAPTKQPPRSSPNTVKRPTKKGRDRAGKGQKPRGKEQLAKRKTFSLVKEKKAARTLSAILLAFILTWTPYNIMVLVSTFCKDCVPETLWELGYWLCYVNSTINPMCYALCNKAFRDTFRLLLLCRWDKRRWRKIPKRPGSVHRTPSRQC
Procedure: as §1, §2, §3

[1] = High throughput HPLC-logD (lipophilicity); conditions: pH 7.4
Procedure: as §4

## CN1C2CCCC1CC(NC(=O)OC(c1ccc(F)cc1)c1ccc(F)cc1)C2 [Compound 8, Bis(4-fluorophenyl)methyl ((1R,3s,5S)-9-methyl-9-azabicyclo[3.3.1]nonan-3-yl)carbamate]
hM2; inhibition of [3H]NMS binding, CHO-hM2 membranes, >1000 values from two independent experiments
  Ki: 0.624 ± 0.104 µM
hM5
  Ki: 0.521 ± 0.173 µM
physchem
  chromatographic logD: 3.21 ± 0.03
hM4
  Ki: 0.563 ± 0.0734 µM
hM3; inhibition of [3H]NMS binding, CHO-hM3 membranes, >1000 values from two independent experiments
  Ki: > 1 µM
hM1
  Ki: 0.475 ± 0.0885 µM

## CN1CCC(NC(=O)OC(c2ccc(F)cc2)c2ccc(F)cc2)C1 (centres unmarked) [Compound 9, Bis(4-fluorophenyl)methyl (1-methylpyrrolidin-3-yl)carbamate]
hM2; ratio of Ki values hM2/hM1
  x-Fold selectivity for hM1 vs. hM2: 10.6 fold
hM2
  Ki: 0.722 ± 0.101 µM
hM5
  Ki: 0.0645 ± 0.0228 µM
hM5; ratio of Ki values hM5/hM1
  x-Fold selectivity for hM1 vs. hM5: 1.0 fold
other
  melting point: 84 to 86 °C
hM4
  Ki: 0.144 ± 0.0373 µM
hM4; ratio of Ki values hM4/hM1
  x-Fold selectivity for hM1 vs. hM4: 2.1 fold
[1]
  chromatographic logD: 2.8 ± 0.1
hM3; ratio of Ki values hM3/hM1
  x-Fold selectivity for hM1 vs. hM3: 2.7 fold
hM3
  Ki: 0.181 ± 0.0681 µM
hM1
  Ki: 0.0678 ± 0.0054 µM
